For 58 compounds, IC50 and Ratio results are on record in patent US8420640B2, “Methods of treating amyloid disease using analogs of 1-(4-nitrophenyl) piperazine” (Treventis Corporation, priority 2008, dated 2013).

The assay deals with T1, Aβ40 (Homo sapiens, UniProt P05067).
T1 construct: Compounds Showing Activity Observed in a ThT Functional Aβ 1-40 Aggregation Assay
Put plainly: ThT functional Aβ 1-40 aggregation assay. It is filed as biochemical. The note with it: for IC50: 20 μM Aβ, 20 mM Tris pH 7.4, 150 mM NaCl, 1% DMSO, 37° C.; for Ratio: potency with respect to the compound of Example 7, 1=potency of that compound. The procedure: Aβ40 (1.0 mg) was pre-treated in a 1.5 mL microfuge tube with HFIP (1 mL) and sonicated for 20 min to disassemble any pre-formed Aβ aggregates. The HFIP was removed with a stream of argon and the Aβ dissolved in Tris base (5.8 mL, 20 mM, pH ˜10). The pH was adjusted to 7.4 with concentrated HCl (˜10 μL) and the solution filtered using a syringe filter (0.2 μm) before being used.
The kinetic ThT assay for Aβ aggregation is similar to that of Chalifour et al (Chalifour et al, 2003, J. Biol. Chem. 278:34874-81). Briefly, pre-treated Aβ40 (40 μM in 20 mM Tris, pH 7.4), was diluted with an equal volume of 8 μM ThT in Tris (20 mM, pH 7.4, 300 mM NaCl). Aliquots of Aβ/ThT (200 μL) were added to wells of a black polystyrene 96-well plate, followed by 2 μL of a compound in DMSO (variable concentration), or DMSO alone (controls). Incubations were performed in triplicate and were taken to contain 20 μM Aβ, various concentration of compound in 20 mM Tris, pH 7.4, 150 mM NaCl, 1% DMSO. Plates were covered with clear polystyrene lids and incubated at 37° C. in a Tecan Genios microplate reader. Fluorescence readings (λex=450 nm, λem=480 nm) were taken every 15 min., after first shaking at high intensity for 15 s and allowing to settle for 10 s before each reading. Active compounds attenuated the increase in fluorescence over time that occurred in controls. By repeating this procedure over several concentrations, a mean inhibitory concentration (IC50) was measured, as given in the table below. The column “A-syn” represents a similar procedure measuring inhibition of alpha-synuclein aggregation. The column “ratio” is a reproducible assessment of potency with respect to the compound of Example 7, in which 1=potency of that compound: […]

T1 sequence (P05067 672-711 limits assumed): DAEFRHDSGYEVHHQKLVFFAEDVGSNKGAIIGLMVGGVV

As for `O=[N+]([O-])c1ccc(Br)cc1NCc1ccccc1`, the IC50 (usually the concentration needed to halve the response being measured) fell in the range of 20 to 50 µM.

Turning to `O=C(NCc1ccccc1)c1ccccc1-c1ccc([N+](=O)[O-])c(NCc2ccccc2)c1`, the IC50 came out at 631 µM and the Ratio is on record as 0.02.

With `NC(=O)c1ccc(N2CCN(C(=O)c3ccccc3)CC2)cc1NCc1ccccc1`, the IC50 was 265 µM and the Ratio amounted to 0.03.

Regarding `O=C(O)c1ccc(-c2ccc([N+](=O)[O-])c(NCc3ccccc3)c2)cc1`, the midpoint of inhibition, the IC50, lay at 184 µM and the Ratio amounted to 0.02.

The compound `O=[N+]([O-])c1ccc(N2CCCCC2)cc1Nc1ccccc1` registered a concentration for half-maximal inhibition (IC50) greater than 100 µM.

For `CC(=O)Nc1ccc(N2CCN(C(=O)c3ccccc3)CC2)cc1Nc1ccccc1`, the Ratio is 0.21.

As to `CC(=O)N1CCN(c2ccc([N+](=O)[O-])c(NCc3ccccc3)c2)CC1`, the IC50 turned out to be 25.8 µM and the Ratio came out at 0.58.

As for `O=C(NCc1ccccc1)C1CCN(c2ccc([N+](=O)[O-])c(NCc3ccccc3)c2)CC1`, it took 975 µM to reach half-maximal inhibition (IC50) and the Ratio is recorded as 0.03.

`CC(=O)Nc1cc([N+](=O)[O-])ccc1N1CCN(C(=O)c2ccccc2)CC1`: the IC50 stood at 105 µM and the Ratio was determined as 0.04.

For `O=C(O)C1CCCN(c2ccc([N+](=O)[O-])c(NCc3ccccc3)c2)C1` (stereo not drawn), the IC50 came out at 21.7 µM and the Ratio came to 0.88.

On to `CCc1ccc(C(=O)N2CCN(c3ccc([N+](=O)[O-])c(N4CCOCC4)c3)CC2)cc1`, for which the IC50 turned out to be 2.7 µM. That is a single-digit micromolar value.

Turning to `O=[N+]([O-])c1ccc(N2CCNCC2)cc1Nc1ccccc1`, the 50% inhibitory concentration (IC50) came out at 8.82 µM and the Ratio came out at 0.54.

On to `O=C(c1nnc[nH]1)N1CCN(c2ccc([N+](=O)[O-])c(NCc3ccc(Cl)cc3)c2)CC1`, for which inhibition was half-maximal at 1.4 µM (IC50).

Consider `CC(=O)Nc1cc(N2CCN(C(=O)c3ccccc3)CC2)ccc1[N+](=O)[O-]`, for which 44 µM corresponded to half-maximal inhibition (IC50) and the Ratio is given as 0.19.

Turning to `Nc1ccc(N2CCN(C(=O)c3ccccc3)CC2)cc1Nc1ccccc1`, the IC50 came to 1.9 µM and the Ratio was determined as 9.9.

Consider `CN(C)c1ccc([N+](=O)[O-])c(Nc2ccccc2)c1`, for which inhibition was half-maximal at 39 µM (IC50) and the Ratio is given as 0.15.

As for `O=C(c1ccccc1)N1CCN(c2ccc([N+](=O)[O-])cc2NCc2ccccc2)CC1`, the IC50 was determined as 18 µM and the Ratio was determined as 0.22.

Regarding `O=C(Nc1ccccc1)c1ccccc1-c1ccc([N+](=O)[O-])c(NCc2ccccc2)c1`, the IC50 was 152 µM and the Ratio stood at 0.03.

On to `CCN(CC)C(=O)c1ccc(N2CCN(C(=O)c3ccccc3)CC2)cc1NCc1ccccc1`, for which the IC50 is 361 µM and the Ratio came out at 0.05.

Regarding `O=C(c1ccccc1)N1CCN(c2cccc([N+](=O)[O-])c2)CC1` [drawing 132], the IC50 is 196 µM and the Ratio stood at 0.04.

For `O=C(NCc1ccccc1)c1cccc(-c2ccc([N+](=O)[O-])c(NCc3ccccc3)c2)c1`, the IC50 came out at 14900 µM and the Ratio stood at 0.

`O=C(c1cccs1)N1CCN(c2ccc([N+](=O)[O-])c(-n3nc(-c4ccccc4)c4ccccc4c3=O)c2)CC1` showed an IC50 greater than 20 µM.

As for `CN(C)c1ccc(N2CCN(C(=O)c3ccccc3)CC2)cc1N(C)c1ccccc1`, the 50% inhibitory concentration (IC50) came out at 148 µM and the Ratio is reported as 0.25.

Regarding `O=[N+]([O-])c1ccccc1NCc1ccccc1`, 63 µM corresponded to half-maximal inhibition (IC50) and the Ratio is 0.38.

Regarding `O=C(O)C1CCN(c2ccc([N+](=O)[O-])c(NCc3ccccc3)c2)CC1`, the IC50 was determined as 23 µM and the Ratio is on record as 0.89.

In turn, `O=C(c1ccccc1)N1CCN(c2ccc([N+](=O)[O-])c(Oc3ccccc3)c2)CC1` gave an IC50 greater than 50 µM.

As for `CN(C)C(=O)c1ccc(N2CCN(C(=O)c3ccccc3)CC2)cc1NCc1ccccc1`, the IC50 was found to be 84 µM and the Ratio was 0.11.

Consider `COc1ccc(N2CCN(C(=O)c3ccccc3)CC2)cc1Nc1ccccc1`, for which the half-maximal inhibitory concentration (IC50) was 238 µM and the Ratio was found to be 0.04.

For `O=[N+]([O-])c1ccc(N2CCOCC2)cc1Nc1ccccc1`, the IC50 stood at 23 µM and the Ratio worked out at 0.40.

In the case of `O=C(c1ccccc1)N1CCN(c2ccc(NCCO)c(Nc3ccccc3)c2)CC1`, the IC50 was 90 µM and the Ratio turned out to be 0.1.

Regarding `O=C(Nc1cc([N+](=O)[O-])ccc1N1CCN(C(=O)c2ccccc2)CC1)c1ccccc1`, half-maximal inhibition (IC50) was put at 1040 µM and the Ratio is listed as 0.01.

In the case of `O=C(O)c1ccccc1-c1ccc([N+](=O)[O-])c(NCc2ccccc2)c1`, the IC50 worked out at 41.9 µM and the Ratio was determined as 0.5.

Take `CN1CCN(c2ccc([N+](=O)[O-])c(Nc3ccccc3)c2)CC1`: half-maximal inhibition (IC50) required 23.2 µM and the Ratio worked out at 0.42.

As to `O=C(Nc1ccccc1)c1cccc(-c2ccc([N+](=O)[O-])c(NCc3ccccc3)c2)c1`, the half-inhibitory concentration (IC50) worked out at 5730 µM and the Ratio was determined as 0.

Consider `CCNC(=O)c1ccc(N2CCN(C(=O)c3ccccc3)CC2)cc1NCc1ccccc1`, for which the 50% inhibitory concentration (IC50) worked out at 66.2 µM and the Ratio is 0.13.

Turning to `CN(C)C(=O)N1CCN(c2ccc([N+](=O)[O-])c(Nc3ccccc3)c2)CC1`, half-maximal inhibition (IC50) required 8.4 µM and the Ratio turned out to be 0.72.

In the case of `COC(=O)c1ccc(N2CCN(C(=O)c3ccccc3)CC2)cc1NCc1ccccc1`, the IC50 was 174 µM and the Ratio amounted to 0.14.

Regarding `O=[N+]([O-])c1ccc(N2CCN(Cc3ccccc3)CC2)cc1Nc1ccccc1`, the IC50 was greater than 50 µM.

Consider `O=C(c1ccccc1)N1CCN(c2ccc([N+](=O)[O-])cc2Nc2ccccc2)CC1`, for which the midpoint of inhibition, the IC50, lay at 92 µM and the Ratio stood at 0.34.

For `O=C(Nc1ccccc1)c1ccc(-c2ccc([N+](=O)[O-])c(NCc3ccccc3)c2)cc1`, inhibition was half-maximal at 217 µM (IC50) and the Ratio is recorded as 0.07.

For the compound `O=C(c1ccccc1)N1CCN(c2cccc(Nc3ccccc3)c2)CC1`, the IC50 came to 539 µM and the Ratio came out at 0.05.

In the case of `O=C(O)c1ccc(N2CCN(C(=O)c3ccccc3)CC2)cc1NCc1ccccc1`, half-maximal inhibition (IC50) was put at 189 µM and the Ratio came out at 0.05.

As to `O=C(Nc1ccccc1)C1CCN(c2ccc([N+](=O)[O-])c(NCc3ccccc3)c2)CC1`, the IC50 worked out at 544 µM and the Ratio is reported as 0.05.

As to `O=C(c1ccccc1)N1CCN(c2ccc(NCCN3CCOCC3)c(Nc3ccccc3)c2)CC1`, the midpoint of inhibition, the IC50, lay at 54.4 µM and the Ratio was found to be 0.17.

Turning to `O=C(c1ccccc1)N1CCN(c2cccc([N+](=O)[O-])c2)CC1` [drawing 151], inhibition was half-maximal at 360 µM (IC50) and the Ratio came out at 0.06.

Turning to `CN(c1ccccc1)c1cc(N2CCN(C(=O)c3ccccc3)CC2)ccc1N`, the half-inhibitory concentration (IC50) is 15.5 µM and the Ratio is recorded as 0.65.

Take `CS(=O)(=O)N1CCN(c2ccc([N+](=O)[O-])c(Nc3ccccc3)c2)CC1`: the IC50 is greater than 50 µM.

As for `O=C(Nc1cc(N2CCN(C(=O)c3ccccc3)CC2)ccc1[N+](=O)[O-])c1ccccc1`, the IC50 worked out at 178 µM and the Ratio was 0.05.

In the case of `CC(=O)N1CCN(c2ccc([N+](=O)[O-])c(N3CCc4ccccc4C3)c2)CC1`, inhibition was half-maximal at 4.03 µM (IC50).

With `CNc1ccc(N2CCN(C(=O)c3ccccc3)CC2)cc1N(C)c1ccccc1`, the IC50 was determined as 7.8 µM and the Ratio stood at 1.3.

Consider `Nc1ccc(N2CCN(C(=O)c3ccccc3)CC2)cc1N(Cc1ccccc1)c1ccccc1`, for which the IC50 is 107 µM and the Ratio is on record as 0.35.

`COc1ccc(C(=O)N2CCN(c3ccc([N+](=O)[O-])c(NCc4ccco4)c3)CC2)cc1OC` yielded an IC50 greater than 20 µM.

On to `O=C(c1ccccc1F)N1CCN(c2ccc([N+](=O)[O-])c(NCc3ccco3)c2)CC1`, for which the IC50 was determined as 2.1 µM. This lies in the single-digit micromolar range.

Turning to `CNc1ccc(N2CCN(C(=O)c3ccccc3)CC2)cc1Nc1ccccc1`, the 50% inhibitory concentration (IC50) was found to be 2.29 µM and the Ratio came out at 4.4.

On to `O=[N+]([O-])c1ccc(N2CCN(S(=O)(=O)c3ccccc3)CC2)cc1Nc1ccccc1`, for which the half-inhibitory concentration (IC50) is greater than 50 µM.

As to `O=C(NCc1ccccc1)c1ccc(-c2ccc([N+](=O)[O-])c(NCc3ccccc3)c2)cc1`, the IC50 is 42 µM and the Ratio stood at 0.11.

In the case of `CCOC(=O)C1CCN(c2ccc([N+](=O)[O-])cc2C(=O)c2ccc(Cl)cc2)CC1`, the half-inhibitory concentration (IC50) was greater than 20 µM.

As for `Nc1cccc(N2CCN(C(=O)c3ccccc3)CC2)c1`, it took 428 µM to reach half-maximal inhibition (IC50) and the Ratio came to 0.05.
